Measurements as given in patent US20240041825A1, “SAROGLITAZAR AND MYRISTIC ACID FOR USE IN THE TREATMENT OF FOCAL SEGMENTAL GLOMERULOSCLEROSIS (FSGS)” (Delta 4 GmbH, priority 2020, published 2024).

System: Adriamycin-induced FSGS in BALB/c mice
Test: Adriamycin induced nephropathy mouse model of FSGS (UPCR, UACR, histology)
Type: in vivo
Conditions: Experiment 1, FIG. 5; chow with 25 mg/kg saroglitazar and/or 625 mg/kg myristic acid from day 2
Source text: For biological testing of the shortlisted compounds, we chose accepted mouse models of FSGS such as the adriamycin induced nephropathy or miR-193a-overexpressing mice which suffer from FSGS due to suppression of Wilms' tumor 1 (WT1) gene (Gebeshuber et al., 2013). All animal experiments and handling were in accordance with the Austrian law for protection of animals and approved by the animal ethics committee of the Austrian ministry for science and research.
Adriamycin-dependent nephropathy (active compound: doxorubicin) was induced by tail vein injection accepted doses of approx. 9 mg/kg mouse in 10 weeks old BALB/c mice. Control mice were injected with 0.9% saline. At least 6 mice were analyzed per group. Mice were monitored daily for signs of pain, altered movement, or reduced food uptake and sacrificed by cervical dislocation. […]
Urinary albumin levels were assessed by ELISA, urinary total protein and urinary creatinine levels were measured on the Roche Cobas system, using routine laboratory kits. Urinary protein/creatinine (UPCR) ratio and urinary albumin/creatinine ratio (UACR) were assessed at different time points. Weight and physical fitness scores were monitored on a daily basis. […]
Spot urine was collected every week and Creatinine and protein levels were measured.
Urinary albumin was measured by ELISA. […]

SMILES: CCCCCCCCCCCCCC(=O)O [Myristic acid]
- effect on proteinuria (UPCR) versus control, in words: did not reduce UPCR

SMILES: CCO[C@@H](Cc1ccc(OCCn2c(C)ccc2-c2ccc(SC)cc2)cc1)C(=O)O [saroglitazar]
- effect on proteinuria (UPCR) versus control, in words: able to ameliorate proteinuria to a certain extent
